These results are taken from article PMC10653858 (mBio, 2023).

One test deals with LegAS4 enzymes. Format: binding, L. pneumophila strain Philadelphia.
Another test relates to SET domain. Format: binding, L. pneumophila. Conditions: pH 8.
The subject of another test is LegAS4. Format: binding, L. pneumophila strain Philadelphia. Conditions: pH 7.5.

Consider `C[S+](CC[C@H](N)C(=O)[O-])C[C@H]1O[C@@H](n2cnc3c(N)ncnc32)[C@H](O)[C@@H]1O` (stereo partly drawn) [SAM], for which the “SAM binding of the different proteins, in words” value in the test on LegAS4 enzymes was “same binding capacity to SAM”. Moreover, the “SAM binding of the SET domain alone, in words” value with SET domain was “greatly decreased SAM binding”. Regarding “ARTKQT-K(Biotin)-NH2 [H3 peptide (Ala1-Ala7)]”, in the test on LegAS4, the “Peptide binding to wild-type LegAS4, in words” value was “not binding the enzyme”.
